Measured values published in patent publication US20110151455A1, “Fish-ribosyn for antibiotic susceptibility testing” (University of South Florida, priority 2006, published 2011).
≈ marks a conversion by molar mass, not a printed value. Entries after “also recorded” stand apart in the source; their conditions may differ.

Key:
[1] = tested on: Acinetobacter lwoffii (ATCC 15309); assay: FISH-RiboSyn of antibiotic treated batch cultures (dF/dt); type: cell-based; parameters: ratio of dF/dt compared to the control: concentration or dose not given beside the values; conditions: for effect on ribosome synthesis: in words
Description: Acinetobacter lwoffii (ATCC 15309) was cultured on nutrient agar plates inoculated from a frozen glycerol/bead stock. After incubation for 24 hours at 32° C., a single colony was removed from the plate with a sterile loop and streaked on a second nutrient agar plate. The sterile loop was then submerged in a test tube containing 10 mL of […] which was incubated for 12 hours and 1 mL of grown culture was added to 1 mL of 4% paraformaldehyde (PFA) and incubated for 1 hour. The sample was then centrifuged at 10,000 G for 5 minutes, the supernatant decanted, and the cell pellet resuspended in ethanol PBS. Fluorescence in situ hybridization (FISH) with a genus specific probe was performed on this sample to verify culture purity before proceeding with the experiment. After culture purity was verified, the plated culture was incubated for 24 hours and a single colony was picked with a sterile loop and transferred to a 10 mL test tube of nutrient broth and incubated for 14 hours. The primary culture for this experiment was inoculated by transferring 1 mL from the test tube to a 100 mL nutrient broth flask. The optical density (OD at wavelength of 600 nm) of the culture was monitored over time until OD=0.449. At this time 10 mL of culture was transferred to four separate flasks containing 90 mL of nutrient broth and an appropriate amount of antibiotic. […] (Wisplinghoff et al. (2000)). Flask 4 was untreated as a control culture. At the same time, 9 mL of the primary culture was added to a 50 mL conical containing 1 mL of 1 mg/mL chloramphenicol for a final concentration of 100 μg/mL. Samples of 1 mL were taken from the chloramphenicol treated cell culture at 0, 5, 10, 15, and 20 minutes and incubated in 1 mL of 4% PFA for at least one hour. These samples were then centrifuged at 10,000 G for 5 minutes, the supernatant decanted and cell pellets resuspended in ethanol PBS and stored at −20° C. until evaluated by FISH.
A dilution series of a growing culture of A. lwoffii was previously used to determine the relationship between OD (at 600 nm) and CFU/mL by plating diluted samples on nutrient agar plates at various values of OD and performing plate counts.
Treated flasks were allowed to incubate for 30 minutes and which time 9 mL of the primary culture was added to a 50 mL conical containing 1 mL of 1 mg/mL chloramphenicol for a final concentration of 100 μg/mL. Samples of 1 mL were taken from the chloramphenicol treated cell culture at 0, 5, 10, 15, and 20 minutes and incubated in 1 mL of 4% PFA for at least one hour. These samples were then centrifuged at 10,000 G for 5 minutes, the supernatant decanted and cell pellets resuspended in ethanol PBS and stored at −20° C. until evaluated by FISH. This was repeated for each flask at 90, 150, and 210 minutes of incubation with the antibiotic.
All images were analyzed using the Image-Pro Plus (v6.2.0.424) software package. Only single cells or diplococci were included in analysis. Images were thresholded using the “Automatic Bright Objects” option in the measurement console. Occasionally this algorithm excluded dim objects if bright objects were present. In these cases the manual thresholding was used to find the optimal thresholding range. […] The highest size threshold used for these cells was 5,000 pixels^2.

[2] = tested on: Acinetobacter lwoffii (ATCC 15309); assay: Optical density of antibiotic treated batch cultures; type: cell-based; conditions: experimental batch culture compared to control
Description: Acinetobacter lwoffii (ATCC 15309) was cultured on nutrient agar plates inoculated from a frozen glycerol/bead stock. After incubation for 24 hours at 32° C., a single colony was removed from the plate with a sterile loop and streaked on a second nutrient agar plate. The sterile loop was then submerged in a test tube containing 10 mL of […] which was incubated for 12 hours and 1 mL of grown culture was added to 1 mL of 4% paraformaldehyde (PFA) and incubated for 1 hour. The sample was then centrifuged at 10,000 G for 5 minutes, the supernatant decanted, and the cell pellet resuspended in ethanol PBS. Fluorescence in situ hybridization (FISH) with a genus specific probe was performed on this sample to verify culture purity before proceeding with the experiment. After culture purity was verified, the plated culture was incubated for 24 hours and a single colony was picked with a sterile loop and transferred to a 10 mL test tube of nutrient broth and incubated for 14 hours. The primary culture for this experiment was inoculated by transferring 1 mL from the test tube to a 100 mL nutrient broth flask. The optical density (OD at wavelength of 600 nm) of the culture was monitored over time until OD=0.449. […] These samples were then centrifuged at 10,000 G for 5 minutes, the supernatant decanted and cell pellets resuspended in ethanol PBS and stored at −20° C. until evaluated by FISH.

[3] = tested on: Acinetobacter baumannii^T; assay: Minimum inhibitory concentration (MIC) determination; type: cell-based; conditions: ATCC19606, A. baumannii^T, ATCC 19606
[4] = tested on: Acinetobacter baumannii CBD1311; assay: as above; type: cell-based; conditions: A. baumannii CBD1311
A. baumannii CBD1311 = assay: FISH-RiboSyn antibiotic susceptibility testing (rate of ribosome synthesis, pre-16S rRNA); type: cell-based, Acinetobacter baumannii; conditions: 30 minutes of antibiotic exposure; for dF/dtcm (rate of ribosome synthesis): doxycycline 8 μg/mL or levofloxacin 2 μg/mL
Description: (§1) Sample collection. When it was observed that a culture was in mid-log growth phase (OD of approximately 0.4) 50 mL of the culture was transferred to a sterile flask and subjected to chloramphenicol at a final concentration of 200 mg/L. Samples (1 mL) were collected from the sub-culture every five minutes (including a sample at time zero) for a total of 20 minutes. Each sample was centrifuged at 10,000 G for 2 minutes, the supernatant was decanted, and the resulting cell pellet was resuspended in 1 mL of 4% PFA for 12-24 hours. The samples were centrifuged and supernatant decanted, as previously described, and resuspended in 2 mL of ethanol PBS (EtOH-PBS). The samples were stored at −20° C. until further analysis.
(§2) To test the effects of the antibiotic doxycycline, doxycycline (Fisher Scientific) stock solution (1 mg/mL) was added to 100-mL of fresh, sterile nutrient broth for a final concentration of 8 μg/mL. A sample from an actively growing culture (10 mL) was added to the doxycycline/nutrient broth for a final volume of 110 mL. The aforementioned transfers were performed for both the resistant strain A. baumannii CBD1311 (OD=0.378) and a susceptible strain A. baumannii^T (OD=0.324). […] Transfers were performed for A. baumannii CBD1311 (OD=0.338) and A. baumannii^T (OD=0.365) and the dilutions were sufficient to ensure that the culture was below a McFarland standard of 0.5. Additionally, controls were implemented for each transfer where an additional 10 mL of the appropriate culture was combined with 100 mL of fresh sterile nutrient broth without an antibiotic. All cultures were incubated at 32° C. and shaken continuously (200 rpm).
(§3) A fluorescently-labeled oligonucleotide hybridization probe, Acin1543, targeting the pre-16S rRNA for members of the genus Acinetobacter was synthesized (5′-[…]-3′) (SEQ ID NO:1) and conjugated with the cyanine dye, Cy3, before purification with oligonucleotide probe purification cartridges (Oerther et al. (2000b)). Fluorescently labeled probes were diluted to 50 ng/μL with RNase-free water and stored at −20° C. in the dark. Fixed samples were applied to a sample well on a 10 well Heavy Teflon Coated microscope slide (Cel-Line Associates, New Field, N.J.) and air-dried. After dehydration with an increasing ethanol series (50, 80, 95% [vol/vol] ethanol, 1 min each), each sample well was covered with a mixture of 18 μL of hybridization buffer (20% [vol/vol] formamide, 0.9 M NaC1, 100 mM Tris HCl [pH 7.0], 0.1% SDS) (DelosReyes et al. (1997)) and 2 μL of the stock fluorescently labeled oligonucleotide probe. The hybridizations were conducted in a moisture chamber containing excess hybridization buffer (to prevent dehydration of buffer on sample wells) for 1.5 h, in the dark, at 46° C. The slides were washed for 30 min at 48° C. with 50 mL of pre-warmed washing buffer solution (215 mM NaCl, 20 mM Tris HCl [pH 7.0], 0.1% SDS, and 5 mM EDTA) (DelosReyes et al. (1997)). Fixed, hybridized cells were mounted with Type FF immersion oil (Cargille, Cedar Grove, N.J.) and a cover slip. Cells were stained with 4′, 6-diamidino-2-phenylindole (DAPI) at a concentration of 1 μg/mL for 1 minute and rinsed with DI water.
(§4) Image Capture. Whole cell fluorescence was visualized with an upright epiflourescence microscope (Leitz DiaPlan, Heerbrugg, Switzerland), and digital images were captured using a Spot-FLEX charge coupled device (CCD) camera (Diagnostic Instruments, Inc., Sterling Heights, Mich.). Images were collected using a 100× oil objective and constant exposure time (1.1 sec for experiment I; 3.0 sec for experiment 2) and gain of 2.

A. baumannii^T [5] = assay: as above; type: cell-based, Acinetobacter baumannii; conditions: for initial mean whole cell fluorescence: prior to chloramphenicol, 8-bit intensity
Description: as §1, §2, §3, §4

A. baumannii^T [6] = assay: Growth of antibiotic treated culture by optical density (OD); type: cell-based, Acinetobacter baumannii; conditions: susceptible strain; levofloxacin 2 μg/mL
Description: Culturing. Four Acinetobacter strains (Table 1) were maintained on nutrient agar (Difco) at 35° C. Prior to each experiment, a single colony was used to inoculate an overnight culture of nutrient broth (Difco). Experimental cultures were prepared by transferring 1 mL of culture to a flask containing 100 mL of nutrient broth. The relationship between optical density (OD at 600 nm) and cell concentration (CFU/mL) was determined by collecting samples between an OD of 0.1 and 0.6. The samples were serially diluted (10^−4-10^−7) in sterile nutrient broth and 100 μL of diluted sample was spread on nutrient agar plates in replicates of 5. After 24 hours of incubation at 35° C., colonies were counted on plates which contained between 20 and 200 colonies.
To test the effects of the antibiotic doxycycline, doxycycline (Fisher Scientific) stock solution (1 mg/mL) was added to 100-mL of fresh, sterile nutrient broth for a final concentration of 8 μg/mL. A sample from an actively growing culture (10 mL) was added to the doxycycline/nutrient broth for a final volume of 110 mL. The aforementioned transfers were performed for both the resistant strain A. baumannii CBD1311 (OD=0.378) and a susceptible strain A. baumannii^T (OD=0.324). […]

[7] = antibiotic exposure 30 min, ampicillin 2 μg/mL, ciprofloxacin 0.25 μg/mL, doxycycline 500 μg/mL
[8] = 90 minutes of antibiotic exposure, doxycycline 8 μg/mL or levofloxacin 2 μg/mL

Row | SMILES | ratio of dF/dt compared to the control ([1]; antibiotic exposure 30 min) [%] | dF/dt [1, 7] | dF/dt ([1]; antibiotic exposure 90 min) | ratio of dF/dt compared to the control ([1]; antibiotic exposure 90 min) [%] | dF/dt ([1]; antibiotic exposure 150 min) | dF/dt ([1]; antibiotic exposure 210 min) | ratio of dF/dt compared to the control ([1]; antibiotic exposure 210 min) [%] | effect on ribosome synthesis [1] | MIC [3] [µg/mL] | MIC [4] [µg/mL] | dF/dtcm (rate of ribosome synthesis) (A. baumannii CBD1311) | dF/dtcm (rate of ribosome synthesis) (A. baumannii^T [5]; [8]) | further results
1 | CC1(C)S[C@@H]2[C@H](NC(=O)[C@H](N)c3ccccc3)C(=O)N2[C@H]1C(=O)O [Ampicillin] | 93 | 4.7 | 5.06 | 152 | 2.86 | 0 | 0 | impacted by the ampicillin after exposure for 150 and 210 min; also recorded: greater dF/dt than the control cells |  |  |  |  | cell morphology ([1]; long exposures (T=150 min)): elongated cells; impact on optical density [2]: mild impact
2 | O=C(O)c1cn(C2CC2)c2cc(N3CCNCC3)c(F)cc2c1=O [Ciprofloxacin] |  | 4.46 | 2.42 |  | 0.254 | 0.308 |  | appear to not be synthesizing ribosomes after 150 min |  |  |  |  | 
3 | C[C@H]1c2cccc(O)c2C(=O)C2=C(O)[C@]3(O)C(=O)C(C(N)=O)=C(O)[C@@H](N(C)C)[C@@H]3[C@@H](O)[C@@H]21 [doxycycline] | 2 | 0.1238 | 0 | 0 | 0 | 0 | 0 |  | ≤ 0.125 | 16 (≈ 36 µM) | 4.95 | 1.38 | initial mean whole cell fluorescence (A. baumannii CBD1311; prior to chloramphenicol, 8-bit intensity): approximately 26; initial mean whole cell fluorescence (A. baumannii^T [5]; 30 minutes of antibiotic exposure): 59.6
4 | C[C@H]1COc2c(N3CCN(C)CC3)c(F)cc3c(=O)c(C(=O)O)cn1c23 [levofloxacin] |  |  |  |  |  |  |  |  | 0.25 (≈ 0.692 µM) | 8 (≈ 22.1 µM) | 5.84 | 1.67 | dF/dtcm (rate of ribosome synthesis) (A. baumannii^T [5]; 30 minutes of antibiotic exposure, doxycycline 8 μg/mL or levofloxacin 2 μg/mL): 2.23; initial mean whole cell fluorescence (A. baumannii^T [5]; 90 minutes of antibiotic exposure): 71; reduction in dF/dtcm compared to the control (A. baumannii^T [5]; 90 minutes of levofloxacin exposure): > 50%; dF/dtcm (rate of ribosome synthesis) (A. baumannii^T [5]; after 60 minutes of exposure to levofloxacin (so in the source), 2 μg/mL): 1.67; delay before cessation of growth (A. baumannii^T [6]): 60 min
